Laboratory results as given in ChEMBL document CHEMBL1146172, “Identification of novel, orally bioavailable spirohydantoin CGRP receptor antagonists” (Bioorg Med Chem Lett, 2006).

How the values were obtained:
[1] = target: Calcitonin gene-related peptide type 1 receptor (Homo sapiens, UniProt O60894+Q16602); test: Displacement of [125I]hCGRP from human cloned CGRP receptor expressed in HEK293 cells; format: cell-based
[2] = target: Calcitonin gene-related peptide type 1 receptor (Homo sapiens, UniProt Q16602); test: Inhibition of CGRP-induced cAMP production in E10 cells; format: functional, cell-based, Mus musculus
[3] = Clearance in rat at 2 mpk, iv; conditions: in vivo, 2 mg/kg
[4] = Half life in rat at 2 mpk, iv; format: ADME, organism-based; conditions: in vivo, 2 mg/kg
[5] = Bioavailability in rat at 10 mg/kg, po; format: ADME, organism-based; conditions: in vivo
Rattus norvegicus = test: Volume of distribution in rat at 2 mpk, iv; conditions: in vivo, 2 mg/kg
[6] = Solubility at pH 7.4; format: physicochemical; conditions: buffer
[7] = Half life in rhesus at 0.5 mpk, iv; format: ADME, organism-based, Macaca mulatta; conditions: rhesus monkey, in vivo, 0.5 mg/kg
[8] = Clearance in rhesus at 0.5 mpk, iv; conditions: Macaca mulatta, rhesus monkey, in vivo, 0.5 mg/kg
Cytochrome P450 3A4 = Cytochrome P450 3A4 (Homo sapiens, UniProt P08684); test: Inhibition of CYP3A4; format: ADME
Canis familiaris = test: Volume of distribution in dog at 0.5 mpk, iv; conditions: in vivo, 0.5 mg/kg
Cytochrome P450 2D6 = Cytochrome P450 2D6 (Homo sapiens, UniProt P10635); test: Inhibition of CYP2D6; format: ADME
[9] = Bioavailability in rhesus at 2 mg/kg, po; format: ADME, organism-based, Macaca mulatta; conditions: rhesus monkey, in vivo
Cytochrome P450 2C9 = Cytochrome P450 2C9 (Homo sapiens, UniProt P11712); test: Inhibition of CYP2C9; format: ADME
[10] = Bioavailability in dog at 2 mg/kg, po; format: ADME, organism-based, Canis lupus familiaris; conditions: in vivo
Rhesus monkey = test: Volume of distribution in rhesus at 0.5 mpk, iv; conditions: Macaca mulatta, in vivo, 0.5 mg/kg
[11] = Clearance in dog at 0.5 mpk, iv; conditions: in vivo, 0.5 mg/kg
[12] = Half life in dog at 0.5 mg/kg, iv; format: ADME, organism-based, Canis lupus familiaris; design: dose 0.5 mg/kg, route intravenous; conditions: in vivo

Chain of Calcitonin gene-related peptide type 1 receptor (Homo sapiens, UniProt Q16602) (Q16602 whole entry): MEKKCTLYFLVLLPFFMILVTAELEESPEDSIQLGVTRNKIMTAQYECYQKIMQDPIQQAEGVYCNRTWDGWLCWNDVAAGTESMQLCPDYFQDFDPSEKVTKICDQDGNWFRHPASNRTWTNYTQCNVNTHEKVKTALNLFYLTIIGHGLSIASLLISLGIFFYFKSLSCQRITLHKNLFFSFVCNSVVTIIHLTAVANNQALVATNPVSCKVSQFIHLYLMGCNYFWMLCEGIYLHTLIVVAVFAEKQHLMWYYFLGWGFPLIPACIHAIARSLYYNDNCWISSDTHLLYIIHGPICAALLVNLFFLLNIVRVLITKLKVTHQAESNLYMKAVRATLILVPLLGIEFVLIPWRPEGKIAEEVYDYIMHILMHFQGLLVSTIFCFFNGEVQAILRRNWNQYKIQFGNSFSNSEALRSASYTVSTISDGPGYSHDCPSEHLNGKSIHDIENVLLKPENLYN
Chain of Calcitonin gene-related peptide type 1 receptor (Homo sapiens, UniProt O60894+Q16602) (Q16602 whole entry, one chain of several): as the sequence (Q16602 whole entry) above
Chain of Cytochrome P450 2D6 (P10635 whole entry): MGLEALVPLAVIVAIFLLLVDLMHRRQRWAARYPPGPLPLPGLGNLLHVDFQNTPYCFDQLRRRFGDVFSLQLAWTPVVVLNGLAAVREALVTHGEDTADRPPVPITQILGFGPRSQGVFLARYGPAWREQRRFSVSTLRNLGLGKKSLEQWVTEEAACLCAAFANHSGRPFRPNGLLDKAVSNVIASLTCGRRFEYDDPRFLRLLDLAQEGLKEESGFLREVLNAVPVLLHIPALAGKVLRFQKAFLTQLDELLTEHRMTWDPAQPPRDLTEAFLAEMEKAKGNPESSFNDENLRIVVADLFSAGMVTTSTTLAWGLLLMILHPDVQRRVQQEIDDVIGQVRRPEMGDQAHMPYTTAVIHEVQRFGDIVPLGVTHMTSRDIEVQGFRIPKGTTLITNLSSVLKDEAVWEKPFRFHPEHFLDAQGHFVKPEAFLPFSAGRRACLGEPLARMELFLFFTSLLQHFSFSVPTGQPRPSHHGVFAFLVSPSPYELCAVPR
Chain of Cytochrome P450 2C9 (P11712 whole entry): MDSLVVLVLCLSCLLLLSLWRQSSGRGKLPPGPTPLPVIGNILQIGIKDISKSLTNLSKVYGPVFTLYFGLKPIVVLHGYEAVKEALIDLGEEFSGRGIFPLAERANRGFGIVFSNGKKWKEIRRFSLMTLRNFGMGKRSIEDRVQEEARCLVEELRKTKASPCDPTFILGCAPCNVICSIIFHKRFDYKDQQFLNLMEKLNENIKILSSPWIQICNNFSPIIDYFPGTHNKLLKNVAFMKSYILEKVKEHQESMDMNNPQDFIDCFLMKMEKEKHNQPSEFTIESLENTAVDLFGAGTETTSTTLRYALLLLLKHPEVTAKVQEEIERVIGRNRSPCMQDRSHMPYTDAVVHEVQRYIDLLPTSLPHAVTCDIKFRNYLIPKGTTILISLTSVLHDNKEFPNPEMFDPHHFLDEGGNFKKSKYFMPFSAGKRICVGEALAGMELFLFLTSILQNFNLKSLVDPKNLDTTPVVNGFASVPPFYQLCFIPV
Chain of Cytochrome P450 3A4 (P08684 whole entry): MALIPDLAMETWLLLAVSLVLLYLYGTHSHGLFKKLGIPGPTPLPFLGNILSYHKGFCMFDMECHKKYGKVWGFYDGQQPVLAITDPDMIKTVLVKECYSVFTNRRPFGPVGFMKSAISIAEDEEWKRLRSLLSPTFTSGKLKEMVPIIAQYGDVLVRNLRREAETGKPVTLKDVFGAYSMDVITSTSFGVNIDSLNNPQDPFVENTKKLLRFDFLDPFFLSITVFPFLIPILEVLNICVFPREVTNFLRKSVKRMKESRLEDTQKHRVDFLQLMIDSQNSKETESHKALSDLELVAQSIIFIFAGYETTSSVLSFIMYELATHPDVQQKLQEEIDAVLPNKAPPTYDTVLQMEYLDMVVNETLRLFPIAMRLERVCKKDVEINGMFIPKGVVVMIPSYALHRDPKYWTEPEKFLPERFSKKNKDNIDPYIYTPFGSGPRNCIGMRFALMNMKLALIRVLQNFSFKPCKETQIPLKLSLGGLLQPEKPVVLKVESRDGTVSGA

In the case of `O=C(Cn1c(=O)n(-c2ccccc2)c2ccccc21)Nc1ccc2c(c1)CC1(C2)NC(=O)NC1=O` (centres undefined), the Ki [1] is reported as 87 nM and the IC50 [2] is reported as 430 nM.

Work on `CN1C(=O)NC(=O)[C@]12Cc1ccc(NC(=O)Cn3c(=O)oc4ccccc43)cc1C2` yielded a Ki [1] of 48 nM and an IC50 [2] of 350 nM.

With `CN1C(=O)NC(=O)[C@]12Cc1ccc(NC(=O)Cn3c(=O)n(C4CCOC4)c4ccccc43)cc1C2` (some centres undefined) the clearance [3] was 9 mL/min/kg, the Ki [1] was 20 nM and the half-life [4] was 0.9 h. For the same molecule, the bioavailability [5] was 5%, the Vdss (Rattus norvegicus) was 0.43 L/kg and the IC50 [2] was 61 nM.

`CN1C(=O)NC(=O)[C@]12Cc1ccc(NC(=O)Cn3c(=O)n(-c4cncnc4)c4ccccc43)cc1C2` showed a clearance [3] of 46 mL/min/kg, a solubility [6] of over 100 µg/mL and a Ki [1] of 9.5 nM. The half-life [4] was 0.5 h, the bioavailability [5] was 0% and the Vdss (Rattus norvegicus) was 0.95 L/kg. It also gave an IC50 [2] of 50 nM.

With `O=C(Cn1c(=O)oc2ccccc21)Nc1ccc2c(c1)CC1(C2)NC(=O)NC1=O` (centres undefined) the Ki [1] was 309 nM and the IC50 [2] was 2900 nM.

For `COc1cccc(-n2c(=O)n(CC(=O)Nc3ccc4c(c3)C[C@]3(C4)C(=O)NC(=O)N3C)c3ccccc32)n1`, the clearance [3] was 11 mL/min/kg, the Ki [1] was 15 nM and the half-life [4] was 1.2 h. The bioavailability [5] was 13%, the Vdss (Rattus norvegicus) was 0.84 L/kg and the IC50 [2] was 54 nM.

Molecule `CN1C(=O)NC(=O)C12Cc1ccc(NC(=O)Cn3c(=O)oc4ccccc43)cc1C2` (centres undefined) has a Ki [1] of 103 nM and an IC50 [2] of 1400 nM.

`CN1C(=O)NC(=O)[C@@]12Cc1ccc(NC(=O)Cn3c(=O)oc4ccccc43)cc1C2` showed a Ki [1] of 1050 nM.

Molecule `CN1C(=O)NC(=O)[C@]12Cc1ccc(NC(=O)Cn3c(=O)n(-c4ccccn4)c4ccccc43)cc1C2` has a half-life [7] of 9.6 h, a clearance [3] of 3.4 mL/min/kg and a solubility [6] of under 1 µg/mL. It also gave a clearance [8] of 0.85 mL/min/kg, a half-life [4] of 1.6 h and an IC50 (Cytochrome P450 3A4) of over 10000 nM. It also gave a bioavailability [5] of 36%, a Vdss (Canis familiaris) of 0.69 L/kg and a Vdss (Rattus norvegicus) of 0.47 L/kg. It also gave an IC50 (Cytochrome P450 2D6) of over 10000 nM, a bioavailability [9] of 29% and an IC50 (Cytochrome P450 2C9) of over 10000 nM. The bioavailability [10] was 83%, the Vdss (Rhesus monkey) was 0.31 L/kg and the clearance [11] was 1.7 mL/min/kg. For the same molecule, the half-life [12] was 4.8 h.

`CN1C(=O)NC(=O)[C@]12Cc1ccc(NC(=O)Cn3c(=O)n(-c4cnccn4)c4ccccc43)cc1C2` gave a clearance [3] of 11 mL/min/kg, a Ki [1] of 12 nM and a half-life [4] of 1.1 h. For the same molecule, the bioavailability [5] was 1%, the Vdss (Rattus norvegicus) was 0.64 L/kg and the IC50 [2] was 64 nM.

`O=C(Cn1c(=O)[nH]c2ccccc21)Nc1ccc2c(c1)CC1(C2)NC(=O)NC1=O` (centres undefined) showed a Ki [1] of 280 nM and an IC50 [2] of 690 nM.

In the case of `CN1C(=O)NC(=O)[C@]12Cc1ccc(NC(=O)Cn3c(=O)n(-c4cnsc4)c4ccccc43)cc1C2`, the clearance [3] is reported as 60 mL/min/kg, the Ki [1] is reported as 6.8 nM and the half-life [4] is reported as 1 h. It also gave a bioavailability [5] of 1%, a Vdss (Rattus norvegicus) of 2 L/kg and an IC50 [2] of 39 nM.

`CN1C(=O)NC(=O)[C@]12Cc1ccc(NC(=O)Cn3c(=O)n(-c4nccc(C(F)(F)F)n4)c4ccccc43)cc1C2` gave a clearance [3] of 7.5 mL/min/kg, a Ki [1] of 10 nM and a half-life [4] of 2.8 h. The bioavailability [5] was 0%, the Vdss (Rattus norvegicus) was 1.8 L/kg and the IC50 [2] was 50 nM.

For `CN1C(=O)NC(=O)[C@]12Cc1ccc(NC(=O)Cn3c(=O)n(-c4cc(F)cc(F)c4)c4ccccc43)cc1C2`, the clearance [3] was 3.1 mL/min/kg, the Ki [1] was 29 nM and the half-life [4] was 6.5 h. For the same molecule, the bioavailability [5] was 24%, the Vdss (Rattus norvegicus) was 1.4 L/kg and the IC50 [2] was 180 nM.

Work on `CN1C(=O)NC(=O)[C@]12Cc1ccc(NC(=O)Cn3c(=O)n(C4CCS(=O)(=O)C4)c4ccccc43)cc1C2` (some centres undefined) yielded a clearance [3] of 31 mL/min/kg, a solubility [6] of over 100 µg/mL and a Ki [1] of 17 nM. For the same molecule, the half-life [4] was 1.1 h, the bioavailability [5] was 0% and the Vdss (Rattus norvegicus) was 0.8 L/kg. It also gave an IC50 [2] of 64 nM.

Work on `CN1C(=O)NC(=O)[C@]12Cc1ccc(NC(=O)Cn3c(=O)n(-c4nccs4)c4ccccc43)cc1C2` yielded a clearance [3] of 3.7 mL/min/kg, a solubility [6] of under 1 µg/mL and a Ki [1] of 8.7 nM. The half-life [4] was 2 h, the bioavailability [5] was 20% and the Vdss (Rattus norvegicus) was 0.54 L/kg. For the same molecule, the IC50 [2] was 24 nM.

For `O=C(Cn1c(=O)oc2ccccc21)Nc1ccc2c(c1)CCC1(C2)NC(=O)NC1=O` (centres undefined), the Ki [1] was 607 nM and the IC50 [2] was 3300 nM.

With `CN1C(=O)NC(=O)[C@]12Cc1ccc(NC(=O)Cn3c(=O)n(-c4ncccn4)c4ccccc43)cc1C2` the clearance [3] was 23 mL/min/kg, the Ki [1] was 25 nM and the half-life [4] was 1.1 h. For the same molecule, the bioavailability [5] was 2%, the Vdss (Rattus norvegicus) was 0.5 L/kg and the IC50 [2] was 110 nM.

`Cn1c(=O)n(CC(=O)Nc2ccc3c(c2)CC2(C3)NC(=O)NC2=O)c2ccccc21` (centres undefined) showed a Ki [1] of 78 nM and an IC50 [2] of 530 nM.
